Common to all, as to test: NCI-60 cell line screen, 48 h
Test [1] relates to ACHN renal.
The test system of test [2] is COLO 205 colon.
For test [3], the system named is HCT-15 colon.
In test [4] the test system is M14 melanoma.
Test [5] relates to NCI-H23 lung.
Test [6] has as its system OVCAR-4 ovarian.
Test [7] relates to RPMI-8226 leukemia.
For test [8], the system named is RXF 393 renal.
Test [9] concerns SK-MEL-5 melanoma.
The test system of test [10] is SNB-19 CNS.

From PubChem BioAssay (NCI) come the findings set out here.

“And” between values parts separate entries of the source, which are not always exact repeats. Identical values can stand only once.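 Briefly, cells in 96-well plates were exposed to five compound concentrations for 48 h, and endpoints were estimated by linear interpolation. Abbreviation: GI50, concentration required for 50% inhibition of growth. TGI: concentration producing complete growth inhibition.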

With `CC1Cc2c(Cl)ncnc2N(C)c2ccccc21` (stereo not given), the GI50 in test [1] was 3.79 µM; in test [2], 1.77 µM; in test [3], 3 µM; in test [4] it was 2.77 µM; in test [5], 2.82 µM; in [6], 3.02 µM. Further, the GI50 in [7] was 3.54 µM; in [8], 2.57 µM; in test [9] it was 1.85 µM; in test [10], 4.72 µM. The TGI in test [1] was > 100 µM; in [2] it was 3.41 µM; in test [3] it was 11.3 µM; in test [4] it was 17.3 µM; in [5], 10.9 µM; in test [6] it was > 100 µM. The TGI in test [7] is 16.4 µM; in test [8] it was 6.05 µM; in test [9], 3.62 µM; in test [10] it was > 100 µM.

Consider `NC(=O)NNC/C(Cl)=C(\Cl)C(=O)O`, for which the TGI in test [1], in test [2], in test [3], in [4], in test [5] and in test [6] was > 100 µM in each case. Also, the TGI in test [7], in test [8], in test [9] and in test [10] was > 100 µM throughout.

Take `COc1cc2c(cc1OCC(=O)Nc1ccc(Cl)cc1C(=O)c1ccccc1Cl)N=CC1CCCN1C2=O` (stereo not given): the GI50 was 11.5 µM in test [1]; 14.2 µM in test [2]; 12.6 µM in test [3]; 14.1 µM in [4]; 13.6 µM in [5]; 14.4 µM in [6]. The GI50 in [7] was 20.3 µM; in [8] it was 4.31 µM; in test [9] it was 10 µM; in [10], 14.9 µM. Besides, the TGI in test [1] amounted to 23.8 µM; in [2], 30.8 µM; in [3] it was 26 µM; in test [4], 27.9 µM; in [5] it was 30.5 µM; in test [6] it was 32.9 µM. Moreover, the TGI in test [7] is 98.8 µM; in [8], 15.6 µM; in test [9] it was 21.9 µM; in [10], 30.1 µM.

For `CC1(C)OCC2OC(n3cnc4c(N)nc(Cl)nc43)C(OS(C)(=O)=O)C2O1` (stereo not given), the TGI in test [1], in [2], in [3], in test [4], in [5] and in test [6] was > 100 µM throughout. Also, the TGI in test [7], in test [8], in test [9] and in test [10] was > 100 µM in each case.

With `Cc1c(C(=O)Nc2ccc(N3C[C@@H](C)O[C@@H](C)C3)nc2)cccc1-c1ccc(OC(F)(F)F)cc1`, the GI50 was 5.6 µM and 14.4 µM in test [1]; 13.5 µM and 19.9 µM in [2]; 12.2 µM and 16.9 µM in test [3]; 14.4 µM and 19.3 µM in [4]; 5.98 µM and 12.4 µM in test [5]; 4.28 µM and 11.5 µM in [6]. The GI50 in test [7] was 5.7 µM and 12 µM; in test [8], 12.3 µM and 13.7 µM; in test [9], 3.83 µM and 5.23 µM; in [10], 7.85 µM and 21.3 µM. The TGI in test [1] is 23.3 µM and 44.1 µM; in [2], > 65 µM and 58.8 µM; in test [3] it was 38.8 µM and 55.8 µM; in test [4], > 100 µM; in [5], 25.5 µM and 40.4 µM; in [6], 21.4 µM and 36.2 µM. The TGI in [7] was > 100 µM; in [8], 29.2 µM and 32.1 µM; in [9], 20.8 µM and 38.3 µM; in [10] it was 32 µM and > 100 µM.

For `C=C1C(=O)O[C@@H]2/C=C(/C)[C@@H](OC(C)=O)C[C@@H](O)/C(C)=C\[C@@H](OC(=O)[C@]3(C)O[C@@H]3C)[C@@H]12`, the TGI in test [1] came to 26.8 µM; in test [2], 19.4 µM; in test [3], 34.1 µM; in test [4], 25 µM; in test [5], 35.6 µM; in test [6], 45.8 µM. The TGI was 26.3 µM in test [7], 29.3 µM in test [8], 24.7 µM in [9] and > 100 µM in [10].

Consider `CCC[CH2][Sn]1([CH2]CCC)[O]C(=O)c2cccc([N+](=O)[O-])c2C(=O)[O]1`, for which the GI50 was 0.348 µM in test [1]; 0.617 µM in test [2]; 0.3 µM in [3]; 0.682 µM in test [4]; 0.301 µM in test [5]; 0.465 µM in test [6]. In addition, the GI50 in test [7] is 0.186 µM; in test [8] it was 0.27 µM; in [9] it was 0.919 µM; in test [10], 1.2 µM. Also, the TGI in test [1] is 1.27 µM; in test [2] it was 1.93 µM; in [3] it was 1.31 µM; in [4] it was 2.07 µM; in test [5], 1.19 µM; in test [6], 1.73 µM. Besides, the TGI in test [7] turned out to be 0.596 µM; in [8], 0.783 µM; in [9], 2.22 µM; in test [10] it was 2.51 µM.

On to `COc1cc2[nH]c3c(c2cc1OC)CCN[C@@]31CC[C@@]2(CC3c4c(cc(OC)c(O)c42)CCN3C)C[C@@H]1OC` (stereo not given in full), for which the TGI in test [1] was > 100 µM; in test [2], 38.4 µM; in test [3], > 100 µM; in test [4] it was 34.1 µM; in test [5], > 100 µM; in test [6], > 100 µM. Moreover, the TGI is > 56.2 µM in [7], 77.9 µM in test [8], 30.3 µM in [9] and > 100 µM in test [10].

For the compound `CCN(CC)CCOc1nc2ccccc2c2c1-c1ccc(OC)cc1C2=O`, the GI50 is 0.364 µM in test [1]; 0.49 µM in test [2]; 0.472 µM in test [3]; 1.36 µM in test [4]; 1.27 µM in test [5]; 1.36 µM in test [6]. In addition, the GI50 is 0.449 µM in [7], 1.63 µM in [8], 1.52 µM in [9] and 0.788 µM in test [10]. Moreover, the TGI in [1] is 2.02 µM; in [2], 1.88 µM; in [3], 4.82 µM; in test [4] it was 3 µM; in test [5], 4.07 µM; in test [6], 6.83 µM. Also, the TGI turned out to be 2.15 µM in test [7], 4.44 µM in [8], 3.09 µM in [9] and 6.6 µM in [10].

`Cn1nc(C(F)(F)F)cc1-c1cc(Cl)c(OCc2ccc(Cl)cc2)c(-c2ccc(Cl)c(C(F)(F)F)c2)c1O`: the GI50 in [1] was 1.39 µM; in test [2], 0.718 µM; in [3], 0.764 µM; in test [4] it was 1.16 µM; in [5] it was 0.965 µM; in [6] it was 1.66 µM. The GI50 in test [7] is 0.712 µM; in [8], 1.01 µM; in [9] it was 0.777 µM; in test [10] it was 1.16 µM. The TGI worked out at 4.6 µM in test [1]; 2.39 µM in test [2]; 4.4 µM in [3]; 2.93 µM in test [4]; 3.86 µM in test [5]; 7.14 µM in test [6]. Also, the TGI in [7] came to 2.55 µM; in test [8] it was 3.11 µM; in test [9] it was 1.74 µM; in test [10], 6.72 µM.

As for `CCC(=O)NC1=C(Cl)C(=O)C(NC(=O)CC)=C(Cl)C1=O`, the GI50 was 5.6 µM in test [1]; 5.97 µM in test [2]; 9.02 µM in test [3]; 15.2 µM in test [4]; 18.5 µM in test [5]; 14.4 µM in test [6]. In addition, the GI50 in [7] is 8.98 µM; in test [8] it was 6.64 µM; in test [9] it was 17.6 µM; in [10], > 41 µM. Further, the TGI came to 10.9 µM in test [1]; 10.8 µM in test [2]; 27.1 µM in test [3]; 29.9 µM in test [4]; 40.8 µM in test [5]; 29 µM in [6]. The TGI is 30.4 µM in test [7], 12.8 µM in test [8], 31.7 µM in test [9] and > 55.7 µM in test [10].

Consider `Cc1ccc(NC(=O)COc2ccc(Cl)cc2)cc1Cl`, for which the TGI is > 100 µM in [1]; > 100 µM in test [2]; > 100 µM in [3]; > 100 µM in [4]; 74.9 µM in [5]; > 100 µM in [6]. For the same compound, the TGI in [7], in [8], in test [9] and in [10] was > 100 µM each time.

Turning to `O=C(Nc1cccc([N+](=O)[O-])c1)c1cccc(C(=O)Nc2cccc([N+](=O)[O-])c2)c1`, the GI50 in test [1] is > 100 µM; in test [2], > 100 µM; in test [3], > 100 µM; in [4], > 100 µM; in test [5], > 72.4 µM; in [6] it was > 100 µM. In addition, the GI50 in test [7] was > 100 µM; in test [8], 14.7 µM; in test [9], > 100 µM; in test [10], 28.6 µM. Moreover, the TGI in test [1], in [2], in test [3], in test [4], in [5] and in test [6] was > 100 µM throughout. In addition, the TGI was > 100 µM in test [7], 38.8 µM in test [8], > 100 µM in test [9] and > 100 µM in [10].
